Assay results from US20220402948A1, “EGFR INHIBITOR, COMPOSITION AND PREPARATION METHOD THEREFOR” (BETTA PHARMACEUTICALS CO., LTD., priority 2019, published 2022).
Read-outs that look alike come from different tables or passages of the source.

What was measured:
[1] = target: EGFRΔ19del/T790M/C797S (Homo sapiens, UniProt P00533, T790M/C797S, form not given); experiment: EGFR Δ19del/T790M/C797S kinase test (mobility variation analysis, Caliper EZ Reader); format: biochemical; details: kinase enzymatic activity, Table 1
Protocol: (§1) Mobility variation analysis was performed to determine the affinity of the compound for EGFRΔ19del/T790M/C797S, EGFR WT and IGF1R. The enzymatic reaction scheme is as follows:
(§2) 1. Prepare 1*kinase buffer as follows.
(§3) 3. […] Prepare 2.5-fold final concentration of kinase solution with 1×Kinase buffer.
(§4) 4. Add 10 μL of 2.5-fold final concentration of kinase solution to the compound well and the positive control well; add 10 μL of 1×Kinase buffer to the negative control well.
(§5) 5. Centrifuge at 1000 rpm for 30 s, shake the reaction plate for well mixing, and then incubate at room temperature for 10 minutes.
(§6) 6. Prepare a mixture of ATP and Kinase substrate at 5/3-fold final concentration with 1×Kinase buffer.
(§7) 8. Centrifuge the 384-well plate at 1000 rpm for 30 s, shake it well and then incubate it at room temperature for corresponding time.
(§8) 9. Add 30 μL of stop detection solution to stop the kinase reaction, centrifuge at 1000 rpm for 30 s, and shake it well.
(§9) 10. Read conversion rate with Caliper EZ Reader.
(§10) % Inhibition=((Conversion%_max−Conversion%_sample)/(Conversion%_max−Conversion%_min))*100
(§11) Wherein: Conversion%_sample is the sample conversion rate reading; Conversion%_min: Mean value of negative control wells, representing the conversion rate reading of wells without enzymatic activity; Conversion%_max: Mean value of positive control wells, representing the conversion rate reading of wells without compound inhibition.
(§12) The dose-effect curve was fitted with concentration log value as X-axis and percentage inhibition rate as Y-axis. GraphPad Prism 5 analysis software was used for fitting Log (inhibitor) vs. response—Variable slope with the dose-effect curve to obtain IC50 value of enzymatic activity for each compound.
(§13) The calculation formula is as Y-Bottom+(Top-Bottom)/(1+10^((Log IC50−X)*HillSlope)).

[2] = target: IGF1R (Homo sapiens, UniProt P08069); experiment: IGF1R kinase test (mobility variation analysis, Caliper EZ Reader); format: biochemical; details: kinase enzymatic activity, Table 1; read-out: EGFR IGF1R IC50
Protocol: as §1, §2
2. Preparation of compound concentration gradient: The test compound was tested with an initial concentration of 3000 nM (300 nM for some triple mutations and 100 nM for others), diluted in a 384 source plate (96-well plate for comparative compound 1 and compounds 1-38) to a 100% DMSO solution with 100-fold final concentration, and the compound is 3-fold diluted with Precision to 10 concentrations. A dispenser Echo 550 was used to transfer 250 nL 100-fold final concentration of the compound to the target plate OptiPlate-384F.
3. Prepare 2.5-fold final concentration (5-fold for comparative compound 1 and compounds 1-38) of kinase solution with 1×Kinase buffer. Following steps should also be carried out for comparative compound 1 and compounds 1-38: Add each prepared intermediate dilution compounds to the compound wells of 384-well plate respectively, and test the repeated wells of each concentration; add 5% DMSO of 5 plates into the negative control well and the positive control well respectively. Prepare 2.5-fold final concentration of kinase solution with 1×Kinase buffer.
as §4, §5, §6
7. Add 15 μL mixture of 5/3-fold (2.5-fold for comparative compound 1 and compounds 1-38) final concentration of ATP and substrate to start reaction.
as §7, §8, §9, §10, §11, §12, §13

[3] = target: Ba/F3 cells with EGFR Δ19del/T790M/C797S mutation gene stably overexpressed (Homo sapiens, UniProt P00533, T790M/C797S, cells depend on it, form not given); experiment: Ba/F3-Δ19del/T790M/C797S cell proliferation assay (CellTiter Glo, 72 hours); format: cell-based; details: Table 2, read-out: EGFR Δ19del/T790M/C797S IC50
Protocol: (§14) Cell line: Ba/F3 cells with EGFR Δ19del/T790M/C797S mutation gene stably overexpressed named Ba/F3-Δ119del/T90M/C797S, and A431 and Ba/F3-EGFR wild-type cell line.
(§15) a) Centrifuge the growth cells in logarithmic phase at 1000 rpm for 5 minutes, resuspend the cells in culture medium, and then count the cells;
(§16) b) Inoculate the cells into a 96-well cell culture plate with a density of 2000 cells/well;
(§17) b) Incubate cells in an incubator for another 72 hours.
(§18) a) Take out the 96-well cell culture plate and add 50 μl CTG reagent (CellTiter Glo kit, promega, Cat #G7573);
(§19) b) Shake the plate for 2 minutes and let cool at room temperature for 10 minutes;
(§20) c) Read luminous signal value with PerkinElmer reader,
(§21) Analysis of Experimental Data
(§22) The data were analyzed by GraphPad Prism 6.0 software to obtain the fitting curve of compound activity.
(§23) Y=Min+(Max−Min)/(1+10^((Log IC50−X)*slope));
(§24) X: Logarithm of compound concentration; Y: luminous signal.

[4] = system: A431; experiment: A431 cell proliferation assay (CellTiter Glo, 72 hours); format: cell-based; details: cell proliferation, A431, 72 hours, Table 2, read-out: A431 IC50
Protocol: as §14
RPMI 1640 and 10% FBS and 1% PS; DMEM and 10% FBS and 1% PS.
a) Dilute the test compound (20 mM stock solution) to 10 mM with 100% DMSO as the starting concentration, and then serially dilute 3 times with a “9+0” concentration in 96-well dilution plate (Cat #P-05525, Labcyte);
b) Dilute compound solution thereof to 1:100 (1:20 for comparative compound 1 and compounds 1-38) in medium to prepare 10-fold working solution;
as §15, §16
a) Compounds prepared at step 2 were added to cell plate with 15 μl per well, the final concentrations were 1000, 333, 111.1, 37, 12.3, 4.1, 1.4, 0.5, 0.2 and 0 nM, and the final concentration of DMSO was 0.1%. The blank control well was a culture medium (0.1% DMSO) (the blank control well of comparative compound 1 and compounds 1-38 was a culture medium (0.5% DMSO).
as §17, §18, §19, §20, §21, §22
Fitting compound IC50 from nonlinear regression equation:
as §23, §24

[5] = target: EGFR WT (Homo sapiens, UniProt P00533); experiment: EGFR WT kinase test (mobility variation analysis, Caliper EZ Reader); format: biochemical; details: kinase enzymatic activity, Table 1
Protocol: as §1, §2, §3, §4, §5, §6, §7, §8, §9, §10, §11, §12, §13

Ba/F3 cells with EGFR Δ19del/T790M/C797S mutation gene stably overexpressed, sequence (P00533 with tags, fused parts or gaps DEL746-750/T790M/C797S, form open): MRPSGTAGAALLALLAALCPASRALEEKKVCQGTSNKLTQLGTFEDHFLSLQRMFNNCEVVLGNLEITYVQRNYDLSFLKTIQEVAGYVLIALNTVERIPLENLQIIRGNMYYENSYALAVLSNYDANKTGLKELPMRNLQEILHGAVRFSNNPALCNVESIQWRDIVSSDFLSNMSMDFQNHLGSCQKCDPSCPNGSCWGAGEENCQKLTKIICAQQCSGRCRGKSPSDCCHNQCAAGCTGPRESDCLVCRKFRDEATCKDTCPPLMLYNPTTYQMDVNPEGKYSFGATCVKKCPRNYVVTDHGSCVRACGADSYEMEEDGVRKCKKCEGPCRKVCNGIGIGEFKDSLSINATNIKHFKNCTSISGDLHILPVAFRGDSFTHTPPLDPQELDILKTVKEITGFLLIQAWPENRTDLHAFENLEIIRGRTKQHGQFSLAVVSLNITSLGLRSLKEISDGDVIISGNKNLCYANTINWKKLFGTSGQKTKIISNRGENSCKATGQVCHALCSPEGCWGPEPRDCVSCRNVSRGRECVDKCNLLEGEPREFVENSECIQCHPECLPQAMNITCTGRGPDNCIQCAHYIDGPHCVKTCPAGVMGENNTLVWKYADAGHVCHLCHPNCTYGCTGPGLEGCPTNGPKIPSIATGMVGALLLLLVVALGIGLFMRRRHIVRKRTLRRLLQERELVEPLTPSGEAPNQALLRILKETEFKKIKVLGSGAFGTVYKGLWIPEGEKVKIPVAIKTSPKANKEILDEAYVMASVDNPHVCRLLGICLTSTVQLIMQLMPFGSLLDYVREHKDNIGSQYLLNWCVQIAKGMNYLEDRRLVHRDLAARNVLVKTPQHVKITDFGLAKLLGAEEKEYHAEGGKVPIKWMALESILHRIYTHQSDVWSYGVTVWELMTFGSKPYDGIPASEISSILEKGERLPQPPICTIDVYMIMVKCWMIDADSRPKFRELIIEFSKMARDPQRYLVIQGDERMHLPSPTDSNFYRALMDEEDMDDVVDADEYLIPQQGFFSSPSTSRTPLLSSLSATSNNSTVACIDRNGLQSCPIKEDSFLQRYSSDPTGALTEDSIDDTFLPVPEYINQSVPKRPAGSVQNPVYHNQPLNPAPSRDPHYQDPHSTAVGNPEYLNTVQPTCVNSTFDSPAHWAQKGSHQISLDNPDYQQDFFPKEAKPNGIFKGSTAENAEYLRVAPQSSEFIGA
EGFRΔ19del/T790M/C797S, sequence (P00533 with tags, fused parts or gaps DEL746-750/T790M/C797S, form open): as above
EGFR WT, sequence (P00533 25-1210): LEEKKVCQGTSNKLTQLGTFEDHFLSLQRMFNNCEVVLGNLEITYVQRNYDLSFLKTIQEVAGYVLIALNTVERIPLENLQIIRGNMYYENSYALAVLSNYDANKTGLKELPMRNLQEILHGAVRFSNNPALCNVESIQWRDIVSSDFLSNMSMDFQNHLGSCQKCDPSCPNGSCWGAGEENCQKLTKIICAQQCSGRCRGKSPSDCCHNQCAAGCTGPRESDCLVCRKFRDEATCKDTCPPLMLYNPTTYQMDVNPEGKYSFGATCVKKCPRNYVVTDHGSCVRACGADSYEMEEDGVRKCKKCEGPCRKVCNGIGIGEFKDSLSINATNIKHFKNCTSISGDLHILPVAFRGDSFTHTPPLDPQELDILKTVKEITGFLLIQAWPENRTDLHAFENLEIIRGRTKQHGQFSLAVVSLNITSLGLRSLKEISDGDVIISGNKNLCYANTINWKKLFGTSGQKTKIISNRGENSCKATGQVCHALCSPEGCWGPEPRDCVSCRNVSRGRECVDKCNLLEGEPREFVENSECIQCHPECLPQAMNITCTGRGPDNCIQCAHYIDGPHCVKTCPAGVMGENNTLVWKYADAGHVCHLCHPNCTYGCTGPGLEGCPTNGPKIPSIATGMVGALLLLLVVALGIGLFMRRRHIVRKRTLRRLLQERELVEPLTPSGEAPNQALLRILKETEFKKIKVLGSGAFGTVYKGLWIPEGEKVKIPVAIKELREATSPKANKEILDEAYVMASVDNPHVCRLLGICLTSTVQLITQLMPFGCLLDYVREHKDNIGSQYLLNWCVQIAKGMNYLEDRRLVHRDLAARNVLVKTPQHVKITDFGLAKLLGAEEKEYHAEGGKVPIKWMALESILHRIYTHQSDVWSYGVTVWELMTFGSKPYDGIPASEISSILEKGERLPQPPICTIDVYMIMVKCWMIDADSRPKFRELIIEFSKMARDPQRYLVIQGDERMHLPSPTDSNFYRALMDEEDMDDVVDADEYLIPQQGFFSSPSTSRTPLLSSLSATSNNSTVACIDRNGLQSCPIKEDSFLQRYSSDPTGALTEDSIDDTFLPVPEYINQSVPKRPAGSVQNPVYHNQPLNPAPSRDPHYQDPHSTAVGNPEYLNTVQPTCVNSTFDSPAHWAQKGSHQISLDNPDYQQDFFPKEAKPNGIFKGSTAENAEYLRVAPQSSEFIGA
IGF1R, sequence (P08069 31-1367, species assumed): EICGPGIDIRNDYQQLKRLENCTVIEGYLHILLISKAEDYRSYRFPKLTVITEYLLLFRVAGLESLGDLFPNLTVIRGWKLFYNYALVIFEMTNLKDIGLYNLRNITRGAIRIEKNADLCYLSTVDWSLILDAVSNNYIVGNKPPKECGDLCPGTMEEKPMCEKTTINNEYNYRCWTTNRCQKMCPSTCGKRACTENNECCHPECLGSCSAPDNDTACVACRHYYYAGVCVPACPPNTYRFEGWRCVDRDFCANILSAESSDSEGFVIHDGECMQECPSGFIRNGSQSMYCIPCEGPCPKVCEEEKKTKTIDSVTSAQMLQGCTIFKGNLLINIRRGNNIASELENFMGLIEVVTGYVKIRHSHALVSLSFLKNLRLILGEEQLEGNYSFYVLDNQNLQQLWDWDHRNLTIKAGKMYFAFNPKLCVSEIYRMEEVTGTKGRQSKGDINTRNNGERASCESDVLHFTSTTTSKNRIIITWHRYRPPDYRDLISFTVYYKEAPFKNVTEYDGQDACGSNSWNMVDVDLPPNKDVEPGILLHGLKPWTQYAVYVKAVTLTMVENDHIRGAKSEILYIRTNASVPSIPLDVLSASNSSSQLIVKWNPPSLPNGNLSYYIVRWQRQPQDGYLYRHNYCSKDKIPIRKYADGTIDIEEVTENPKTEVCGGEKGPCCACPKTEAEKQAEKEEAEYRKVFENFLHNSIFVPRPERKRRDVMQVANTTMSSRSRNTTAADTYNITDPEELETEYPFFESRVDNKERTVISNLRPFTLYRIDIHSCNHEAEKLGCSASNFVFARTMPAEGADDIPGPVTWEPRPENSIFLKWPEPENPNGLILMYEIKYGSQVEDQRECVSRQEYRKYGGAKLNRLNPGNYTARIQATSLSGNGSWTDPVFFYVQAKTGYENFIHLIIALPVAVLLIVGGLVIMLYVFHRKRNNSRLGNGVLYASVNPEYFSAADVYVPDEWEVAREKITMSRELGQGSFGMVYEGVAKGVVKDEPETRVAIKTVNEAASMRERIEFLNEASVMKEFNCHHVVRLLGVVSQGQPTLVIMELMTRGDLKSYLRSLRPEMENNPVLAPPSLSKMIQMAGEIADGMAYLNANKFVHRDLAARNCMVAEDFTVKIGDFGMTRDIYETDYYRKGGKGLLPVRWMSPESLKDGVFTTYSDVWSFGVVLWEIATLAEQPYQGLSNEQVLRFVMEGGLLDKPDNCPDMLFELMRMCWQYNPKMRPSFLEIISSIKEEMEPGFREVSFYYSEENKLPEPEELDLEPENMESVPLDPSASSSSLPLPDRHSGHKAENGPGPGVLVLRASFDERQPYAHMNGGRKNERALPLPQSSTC

SMILES | IC50 [1] [µM] | IC50 [2] [µM] | GI50 [3] [µM] | IC50 ([4]; Homo sapiens, A-431, 72 h) [µM] | IC50 [5] [µM] | IC50 [4] [µM]
CCc1cc(Nc2ncc(Cl)c(Nc3ccc(-c4ccccc4)cc3P(C)(C)=O)n2)c(OC)cc1N1CCC(N2CCN(C)CC2)CC1 [Compound 2, (4-((5-Chloro-2-((5-ethyl-2-methoxy-4-(4-(4-methylpiperazin-1-yl)piperidin-1-yl)phenyl)amino)pyrimidin-4-yl)amino)-[1,1′-biphenyl]-3-yl)dimethylphosphine oxide] | 0.0007 | 0.15 | 0.0218 | 0.812 |  | 
CCc1cc(Nc2ncc(Br)c(Nc3ccc(-c4cccc(C#N)c4)cc3P(C)(C)=O)n2)c(OC)cc1N1CCC(N2CCN(C)CC2)CC1 [Compound 5, 4′-((5-Bromo-2-((5-ethyl-2-methoxy-4-(4-(4-methylpiperazin-1-yl)piperidin-1-yl)phenyl)amino)pyrimidin-4-yl)amino)-3′-(dimethylphosphineoxide)-[1,1′-diphenyl]-3-carbonitrile] | 0.0004 | 0.117 | 0.0187 | > 10 | 0.0125 | 
CCc1cc(Nc2ncc(Br)c(Nc3ccc(-c4ccc(F)cc4F)cc3P(C)(C)=O)n2)c(OC)cc1N1CCC(N2CCN(C)CC2)CC1 [Compound 6, (4-((5-Bromo-2-((5-ethyl-2-methoxy-4-(4-(4-methylpiperazin-1-yl)piperidin-1-yl)phenyl)amino)pyrimidin-4-yl)amino)-2′,4′-difluoro-[1,1′-biphenyl]-3-yl)dimethylphosphine oxide] | 0.0009 | 0.147 | 0.0214 | > 10 | 0.0167 | 
CCc1cc(Nc2ncc(Br)c(Nc3ccc(-c4nn(C)c5ncccc45)cc3P(C)(C)=O)n2)c(OC)cc1N1CCC(N2CCN(C)CC2)CC1 [Compound 9, (2-((5-Bromo-2-((5-ethyl-2-methoxy-4-(4-(4-methylpiperazin-1-yl)piperidin-1-yl)phenyl)amino)pyrimidin-4-yl)amino)-5-(1-methyl-1H-pyrazol[3,4-b]pyridin-3-yl)phenyl)dimethylphosphine oxide] | 0.0004 | 0.826 | 0.0231 | 1.45 | 0.0634 | 
CCc1cc(Nc2ncc(Br)c(Nc3ccc(-c4ccc(C#N)cc4)cc3P(C)(C)=O)n2)c(OC)cc1N1CCC(N2CCN(C)CC2)CC1 [Compound 10] | 0.0006 | 0.109 | 0.0097 | 14.3 | 0.0195 | 
CCc1cc(Nc2ncc(Br)c(Nc3ccc(-c4cccc5c4COC5)cc3P(C)(C)=O)n2)c(OC)cc1N1CCC(N2CCN(C)CC2)CC1 [Compound 11, (2-((5-Bromo-2-((5-ethyl-2-methoxy-4-(4-(4-methylpiperazin-1-yl)piperidin-1-yl)phenyl)amino)pyrimidin-4-yl)amino)-5-(1,3-dihydroisobenzofuran-4-yl)phenyl)dimethylphosphine oxide] | 0.0006 | 0.494 | 0.0189 | 1.02 | 0.0286 | 
CCc1cc(Nc2ncc(Br)c(Nc3ccc(-c4nccs4)cc3P(C)(C)=O)n2)c(OC)cc1N1CCC(N2CCN(C)CC2)CC1 [Compound 12, (2-((5-Bromo-2-((5-ethyl-2-methoxy-4-(4-(4-methylpiperazin-1-yl)piperidin-1-yl)phenyl)amino)pyrimidin-4-yl)amino)-5-(thiazol-2-yl)phenyl)dimethylphosphine oxide] | 0.0011 | 0.31 | 0.0107 | 0.989 | 0.013 | 
CCc1cc(Nc2ncc(Br)c(Nc3ccc(-c4cncc(OC)n4)cc3P(C)(C)=O)n2)c(OC)cc1N1CCC(N2CCN(C)CC2)CC1 [Compound 13] | 0.0004 | 0.182 | 0.0405 | 1.68 | 0.0311 | 
CCc1cc(Nc2ncc(Cl)c(Nc3ccc(-c4cscn4)cc3P(C)(C)=O)n2)c(OC)cc1N1CCC(N2CCN(C)CC2)CC1 [Compound 14, (2-((5-Chloro-2-((5-ethyl-2-methoxy-4-(4-(4-methylpiperazin-1-yl)piperidin-1-yl)phenyl)amino)pyrimidin-4-yl)amino)-5-(thiazol-4-yl)phenyl)dimethylphosphine oxide] | 0.0004 | 0.149 | 0.0145 | 0.769 | 0.0139 | 
CCc1cc(Nc2ncc(Br)c(Nc3ccc(-c4nccnc4OC)cc3P(C)(C)=O)n2)c(OC)cc1N1CCC(N2CCN(C)CC2)CC1 [Compound 72, (2-((5-Bromo-2-((5-ethyl-2-methoxy-4-(4-(4-methylpiperazin-1-yl)piperidin-1-yl)phenyl)(amino)amino]pyrimidin-4-yl)amino)-5-(3-methoxypyrazin-2-yl)phenyl)dimethylphosphine oxide] |  |  | 0.0294 | > 10 |  | 
CCc1cc(Nc2ncc(Br)c(Nc3ccc(-c4ccc(N(C)C)nn4)cc3P(C)(C)=O)n2)c(OC)cc1N1CCC(N2CCN(C)CC2)CC1 [Compound 77, (2-((5-Bromo-2-((5-ethyl-2-methoxy-4-(4-(4-methylpiperazin-1-yl)piperidin-1-yl)phenyl)amino]pyrimidin-4-yl)amino)-5-(6-(dimethylamino)pyridazin-3-yl)phenyl)dimethylphosphine oxide] |  |  | 0.0272 |  |  | > 10
CCc1cc(Nc2ncc(Br)c(Nc3ccc(-c4cnn(C)n4)c(F)c3P(C)(C)=O)n2)c(OC)cc1N1CCC(N2CCN(C)CC2)CC1 [Compound 84, (6-((5-Bromo-2-((5-ethyl-2-methoxy-4-(4-(4-methylpiperazin-1-yl)piperidin-1-yl)phenyl)amino)pyrimidin-4-yl)amino)-2-fluoro-3-(2-methyl-2H-1,2,3-triazol-4-yl)phenyl)dimethylphosphine oxide] | 0.0001 | 0.0549 | 0.0058 |  |  | 1.21
COc1cc(N2CCC(N3CCCCC3)CC2)c(-c2cnn(C)c2)cc1Nc1ncc(Br)c(Nc2ccc(-c3ccccc3)cc2P(C)(C)=O)n1 [Compound K-100] |  |  | 0.0021 | 0.0996 |  | 
